Experiments:
Assay in all cases: combination Emax (second highest fraction inhibited in the dose matrix, 72 h); higher = more inhibition; extreme values may be limits of the assay
[1] = tested on: CAL-54 (Kidney Carcinoma)
Outline: (§1)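 Cell lines in DMEM/F12 or RPMI with 10% FBS were plated in 1536-well plates, held 24 hours at 37°C, 5% CO2, then given two-drug dose matrices for 72 hours (DMSO typically 0.2%). Viability was read by CellTiter-Glo 2.0 luminescence and scaled as inhibition from 0 (vehicle wells) to 1 (blank wells). Combination Emax is the second-highest inhibition in the matrix; Bliss excess is observed combination effect minus expected EA + EB − EA·EB, EA and EB being single-agent effects.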

[2] = tested on: CAPAN-1 (Pancreatic Carcinoma)
Outline: as §1

[3] = tested on: CTB-1 (B-Cell Non-Hodgkin's Lymphoma)
Outline: as §1

[4] = tested on: EN (Endometrial Carcinoma)
Outline: as §1

[5] = tested on: HDLM-2 (Hodgkin's Lymphoma)
Outline: as §1

[6] = tested on: HO-1-u-1 (Oral Cavity Carcinoma)
Outline: as §1

[7] = tested on: K5 (Thyroid Gland Carcinoma)
Outline: as §1

[8] = tested on: KARPAS-231 (B-Cell Non-Hodgkin's Lymphoma)
Outline: as §1

[9] = tested on: KYSE-410 (Esophageal Squamous Cell Carcinoma)
Outline: as §1

[10] = tested on: LB771-HNC (Head and Neck Carcinoma)
Outline: as §1

[11] = tested on: MDA-MB-468 (Breast Carcinoma)
Outline: as §1

NB14 (Neuroblastoma) = tested on: NB14 (Neuroblastoma)
Outline: as §1

NCI-H2461 (Mesothelioma) = tested on: NCI-H2461 (Mesothelioma)
Outline: as §1

NCI-H2795 (Mesothelioma) = tested on: NCI-H2795 (Mesothelioma)
Outline: as §1

[12] = tested on: RPMI-6666 (Non-Cancerous)
Outline: as §1

SH-4 (Melanoma) = tested on: SH-4 (Melanoma)
Outline: as §1

[13] = tested on: SU-DHL-6 (B-Cell Non-Hodgkin's Lymphoma)
Outline: as §1

[14] = tested on: SUP-T1 (T-Lymphoblastic Leukemia)
Outline: as §1

[15] = tested on: SW1271 (Small Cell Lung Carcinoma)
Outline: as §1

[16] = tested on: UMC-11 (Other Solid Carcinomas)
Outline: as §1

SMILES	combination Emax [1]	combination Emax [2]	combination Emax [3]	combination Emax [4]	combination Emax [5]	combination Emax [6]	combination Emax [7]	combination Emax [8]	combination Emax [9]	combination Emax [10]	combination Emax [11]	combination Emax (NB14 (Neuroblastoma))	combination Emax (NCI-H2461 (Mesothelioma))	combination Emax (NCI-H2795 (Mesothelioma))	combination Emax [12]	combination Emax (SH-4 (Melanoma))	combination Emax [13]	combination Emax [14]	combination Emax [15]	combination Emax [16]
Cc1cc2ncnn2cc1Nc1ncc2c(n1)n(C1CCOCC1)c(=O)n2C [AZD7648] + CN(C)CCCOc1ccc(-c2ccc3ncc4c(c3c2)n(C2CCOCC2)c(=O)n4C)cn1 [AZD0156] (first compound max 10 µM, 7x7, partner max 1 µM)	0.353	0.31	0.404	0.35	0.368	0.39	0.501	0.208	0.178	0.299	0.353	0.407	0.448	0.469	0.359	0.291	0.621	0.482	0.327	0.21
CN(CCO)CC[C@H](CSc1ccccc1)Nc1ccc(S(=O)(=O)NC(=O)c2ccc(N3CCC([C@@H](O)c4ccccc4-c4ccc(Cl)cc4)CC3)cc2)cc1S(=O)(=O)C(F)(F)F [AZD4320] + CCN(CCO)CCCOc1ccc2c(Nc3cc(CC(=O)Nc4cccc(F)c4)[nH]n3)ncnc2c1 [AZD2811] (first compound max 1 µM, 7x7, partner max 1 µM)	0.163	0.336	0.503	0.381	0.924	0.824	0.33	1	0.17	0.191	0.885	1	0.174	0.284	0.982	0.181	0.958	0.545	0.234	0.93
Cc1c2c(nn1C)CSCc1cc(n(C)n1)CSc1cc(c3ccccc3c1)OCCCc1c(C(=O)O)n(C)c3c-2c(Cl)ccc13 [AZD5991] + C1CN(CCC1(C(=O)N[C@@H](CCO)C2=CC=C(C=C2)Cl)N)C3=NC=NC4=C3C=CN4 [Capivasertib] (first compound max 1 µM, 7x7, partner max 3 µM)	0.351	0.203	0.42	0.848	1	0.837	0.478	1	0.174	0.587	0.585	0.89	0.464	0.85	0.7	0.332	1	0.503	0.216	0.29
CCN(CCO)CCCOc1ccc2c(Nc3cc(CC(=O)Nc4cccc(F)c4)[nH]n3)ncnc2c1 [AZD2811] + C[C@@H]1COCCN1C2=NC(=NC(=C2)C3(CC3)[S@](=N)(=O)C)C4=C5C=CNC5=NC=C4 [AZD6738] (first compound max 1 µM, 7x7, partner max 10 µM)	0.666	0.442	0.751	0.609	0.515	0.852	0.635	0.825	0.355	0.46	0.563	0.998	0.739	0.674	0.833	0.31	0.446	0.777	0.595	0.799
CC1(C)CCC(CN2CCN(c3ccc(C(=O)NS(=O)(=O)c4ccc(NCC5CCOCC5)c([N+](=O)[O-])c4)c(Oc4cnc5[nH]ccc5c4)c3)CC2)=C(c2ccc(Cl)cc2)C1 [Venetoclax] + CCN(CCO)CCCOc1ccc2c(Nc3cc(CC(=O)Nc4cccc(F)c4)[nH]n3)ncnc2c1 [AZD2811] (first compound max 1 µM, 7x7, partner max 1 µM)	0.251	0.206	0.59	0.399	0.486	0.324	0.413	1	0.191	0.186	0.624	1	0.422	0.422	0.991	0.241	0.877	0.614	0.174	0.91
Cc1c2c(nn1C)CSCc1cc(n(C)n1)CSc1cc(c3ccccc3c1)OCCCc1c(C(=O)O)n(C)c3c-2c(Cl)ccc13 [AZD5991] + C[C@@H]1COCCN1C2=NC(=NC(=C2)C3(CC3)[S@](=N)(=O)C)C4=C5C=CNC5=NC=C4 [AZD6738] (first compound max 1 µM, 7x7, partner max 10 µM)	0.706	0.488	0.785	0.853	0.992	0.844	0.574	1	0.403	0.806	0.768	0.989	0.765	0.939	0.889	0.422	1	0.741	0.604	0.828
